The text below walks through data of PubChem BioAssay (NCI).

Several values for one entry are separate records, joined by “and”; a condition that tells them apart may be missing. Equal values may be shown once.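 Five compound concentrations were applied to cells in 96-well plates for 48 hours; endpoints were derived by simple linear interpolation of the resulting dose-response curve. GI50: concentration for 50% inhibition of growth. TGI: concentration producing complete growth inhibition.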

Among the test systems are HCT-116 colon; MCF7 breast; SF-268 CNS; SK-MEL-2 melanoma; SNB-19 CNS; A498 renal; HOP-62 NSCLC; NCI/ADR-RES ovarian; UACC-257 melanoma; HT29 colon.
Common to all, as to test: NCI anticancer screen, dose series, 48 h

Turning to `Cc1ccc(C)c(NC(=O)NCc2ccc(Cl)cc2)c1`, the TGI was more than 100 µM with HCT-116 colon; more than 100 µM in the assay on MCF7 breast; more than 100 µM in the assay with SF-268 CNS; more than 100 µM with SK-MEL-2 melanoma; more than 58.5 µM with SNB-19 CNS; 88.4 µM in the assay with A498 renal. Besides, the TGI in the assay with HOP-62 NSCLC was 37 µM; in the assay with NCI/ADR-RES ovarian, more than 100 µM; in the assay with UACC-257 melanoma, more than 100 µM; in the assay with HT29 colon, more than 100 µM.
With `Oc1c(CN2CCCC2)cc(COCc2ccc(Br)cc2)c2cccnc12`, the GI50 in the assay with HCT-116 colon is 0.365 µM; with MCF7 breast, 0.316 µM; in the assay with SF-268 CNS, 0.76 µM; in the assay on SK-MEL-2 melanoma, 1.47 µM; in the assay on SNB-19 CNS, 1.02 µM; in the assay on A498 renal it was 1.62 µM. The GI50 with HOP-62 NSCLC was 0.362 µM; with NCI/ADR-RES ovarian it was 0.0707 µM; in the assay on UACC-257 melanoma, 1.34 µM; with HT29 colon, 3.53 µM. Moreover, the TGI was determined as 3.56 µM in the assay on HCT-116 colon; 1.37 µM in the assay on MCF7 breast; 6.28 µM in the assay with SF-268 CNS; 3.97 µM with SK-MEL-2 melanoma; 15.4 µM in the assay on SNB-19 CNS; 5.27 µM with A498 renal. Besides, the TGI in the assay with HOP-62 NSCLC worked out at 2.3 µM; in the assay with NCI/ADR-RES ovarian, 1.13 µM; in the assay with UACC-257 melanoma it was 3.02 µM; with HT29 colon it was 13.2 µM.
Turning to `CC(=O)OCC(=O)O[C@@H]1C[C@]2(C(C)C)O[C@@]1(C)[C@@H]1CC[C@@H](C)[C@H]1[C@@H]2OC(=O)/C=C/c1ccccc1`, the GI50 in the assay with HCT-116 colon was 16.1 µM; with MCF7 breast, 22.6 µM; in the assay on SF-268 CNS, 2.65 µM; in the assay with SK-MEL-2 melanoma it was 17.3 µM; in the assay on SNB-19 CNS, 30.2 µM; in the assay with A498 renal, less than 0.0399 µM. The GI50 was 17.3 µM in the assay with HOP-62 NSCLC, 0.143 µM with NCI/ADR-RES ovarian, 23.6 µM in the assay with UACC-257 melanoma and 23.6 µM with HT29 colon. The TGI in the assay with HCT-116 colon is more than 100 µM; in the assay with MCF7 breast it was more than 100 µM; in the assay with SF-268 CNS, 62.2 µM; in the assay with SK-MEL-2 melanoma, 39.1 µM; in the assay on SNB-19 CNS, more than 100 µM; in the assay on A498 renal it was 0.472 µM. The TGI was 45.2 µM with HOP-62 NSCLC, 27.5 µM in the assay with NCI/ADR-RES ovarian, 87.4 µM in the assay with UACC-257 melanoma and more than 100 µM with HT29 colon.
On to `Cn1c(O)c(C(/C=C/c2ccccc2)=NCCN=C(/C=C/c2ccccc2)c2c(O)n(C)c(=O)n(C)c2=O)c(=O)n(C)c1=O`, for which the GI50 in the assay with HCT-116 colon is 13.6 µM; in the assay on MCF7 breast, 15.9 µM; in the assay on SF-268 CNS, 15.1 µM; with SK-MEL-2 melanoma, 27.3 µM; in the assay on SNB-19 CNS, 21.6 µM; in the assay on A498 renal it was 16.6 µM. In addition, the GI50 in the assay on HOP-62 NSCLC is 23.4 µM; in the assay with NCI/ADR-RES ovarian it was 15.3 µM; in the assay with UACC-257 melanoma, 23.5 µM; in the assay with HT29 colon it was 16.9 µM. In addition, the TGI in the assay on HCT-116 colon was more than 50 µM; in the assay on MCF7 breast, more than 50 µM; with SF-268 CNS it was more than 50 µM; in the assay with SK-MEL-2 melanoma it was more than 50 µM; in the assay with SNB-19 CNS, more than 50 µM; in the assay with A498 renal it was 40.7 µM. The TGI in the assay with HOP-62 NSCLC, with NCI/ADR-RES ovarian, in the assay on UACC-257 melanoma and with HT29 colon was more than 50 µM each time.
With `Cc1cnc(/C=N\NC(N)=S)c2cccc(N)c12`, the GI50 was 4.41 µM in the assay on HCT-116 colon; 1.5 µM in the assay with MCF7 breast; 1.51 µM in the assay with SF-268 CNS; more than 29.2 µM with SK-MEL-2 melanoma; 3.42 µM in the assay with SNB-19 CNS; 2.04 µM in the assay with A498 renal. Besides, the GI50 in the assay with HOP-62 NSCLC was 2.89 µM; in the assay on NCI/ADR-RES ovarian, 3.53 µM; with UACC-257 melanoma, 4.81 µM; in the assay on HT29 colon, 5.11 µM. For the same compound, the TGI is > 100 µM and 28.3 µM with HCT-116 colon; more than 100 µM in the assay on MCF7 breast; more than 100 µM in the assay with SF-268 CNS; more than 100 µM in the assay on SK-MEL-2 melanoma; more than 100 µM in the assay with SNB-19 CNS; more than 100 µM with A498 renal. The TGI with HOP-62 NSCLC was more than 100 µM; in the assay with NCI/ADR-RES ovarian it was > 100 µM and 17.8 µM; in the assay on UACC-257 melanoma it was more than 38.8 µM; in the assay with HT29 colon, more than 100 µM.
For `CN(C)c1ncnc2c1nnn2C1OC(CO)C(O)C1O` (stereo not given), the GI50 with HCT-116 colon was 0.431 µM; in the assay with MCF7 breast, 0.216 µM; with SF-268 CNS, 0.479 µM; in the assay with SK-MEL-2 melanoma, 0.104 µM; with SNB-19 CNS, 1.06 µM; in the assay on A498 renal, 0.442 µM. Also, the GI50 in the assay with HOP-62 NSCLC was 0.405 µM; in the assay on NCI/ADR-RES ovarian it was 0.233 µM; in the assay with UACC-257 melanoma, 0.515 µM; with HT29 colon it was 0.128 µM. In addition, the TGI with HCT-116 colon is more than 100 µM; in the assay on MCF7 breast, more than 23.4 µM; in the assay with SF-268 CNS, more than 100 µM; in the assay with SK-MEL-2 melanoma, 0.773 µM; in the assay on SNB-19 CNS, more than 100 µM; with A498 renal, more than 100 µM. Moreover, the TGI in the assay on HOP-62 NSCLC is more than 100 µM; in the assay with NCI/ADR-RES ovarian, more than 100 µM; with UACC-257 melanoma it was more than 100 µM; with HT29 colon, more than 24.7 µM.
In the case of `O=C([O][Hg][CH2]C1COC([CH2][Hg][O]C(=O)c2ccccc2)CO1)c1ccccc1` (stereo not given), the GI50 with HCT-116 colon is 4.24 µM and 1.39 µM; in the assay on MCF7 breast it was 3.69 µM and 1.16 µM; with SF-268 CNS, 17.9 µM and 3.51 µM; in the assay on SK-MEL-2 melanoma it was 12.8 µM and 1.84 µM; in the assay with SNB-19 CNS it was 19.6 µM and 6.18 µM; with A498 renal, 18.8 µM. Moreover, the GI50 is 19.2 µM and 20.7 µM in the assay on HOP-62 NSCLC; 10.9 µM and 1.74 µM in the assay with NCI/ADR-RES ovarian; 14.8 µM and 1.98 µM with UACC-257 melanoma; 15.7 µM and 1.7 µM in the assay with HT29 colon. Further, the TGI is 14.7 µM and 2.68 µM in the assay with HCT-116 colon; 19.8 µM and 2.87 µM in the assay with MCF7 breast; 34 µM and 15.5 µM in the assay on SF-268 CNS; 25.7 µM and 3.75 µM with SK-MEL-2 melanoma; 43.2 µM and 21.9 µM with SNB-19 CNS; 33.1 µM with A498 renal. Further, the TGI in the assay on HOP-62 NSCLC was 37.9 µM and 56.4 µM; with NCI/ADR-RES ovarian, 28.9 µM and 4.76 µM; with UACC-257 melanoma it was 28.1 µM and 3.98 µM; in the assay on HT29 colon, 30.5 µM and 3.26 µM.
